These results are taken from patent publication US20230013669A1, “Antibacterial Treatment Using a Cannabinoid and an Active Agent” (priority 2019, published 2023).

≈ marks a conversion by molar mass, not a printed value. Where “and” joins values, the source holds several entries; their conditions need not be identical. Identical values can stand only once. Counter-ions that a name gives are not always drawn. Like-named read-outs stand apart in the source and are kept apart here. Residues, ends and D or L forms follow the SMILES beside them.

Common to all, as to assay type: cell-based
The test system of assay [1] is Acinetobacter baumannii AL1851, IpxA mutant; Lipid A deficient (GN_237). Kind of assay: MIC broth microdilution, 96-well, visual reading (Example 11). Particulars: for MIC (Test results): Example 11 Table 41; for MIC (Test results) / MIC: GN_237, n=4 replicates; for MIC: Acinetobacter baumannii, read-out: MIC (Test results), Example 11 Table 41. As to the method:
(§1) The experiment was performed to investigate the antimicrobial activity of cannabidiol (CBD) against an LPS deficient strain (GN_237 Acinetobacter baumannii, IpxA mutant; Lipid A deficient; obtained by colistin selection from base strain ATCC 19606) and its parent strain (GN_034, Acinetobacter baumannii, ATCC 19606).
(§2) All plates had flat bottom wells and were covered with low-evaporation lids.
(§3) Two biological replicates ×2 technical replicates were conducted on separate days (final n=4). Inhibition of bacterial growth was determined visually, where the MIC was recorded as the lowest compound concentration with no visible growth.

Assay [2] relates to Acinetobacter baumannii ATCC 19606 Type Strain (GN_034). The description is as above. Particulars: GN_034, n=4 replicates; for MIC (Test results): Example 11 Table 41; for MIC: Acinetobacter baumannii, ATCC19606, read-out: MIC (Test results), Example 11 Table 41. The protocol:
as §1, §2, §3

Assay [3] has as its system Escherichia coli ATCC 25922 (GN_001). The assay is described as follows: MIC micro-broth dilution assay (Example 1 method). Particulars: for MIC: Escherichia coli. On the technique in general: In broth dilution the organism is exposed to a series of concentrations in liquid medium.
Protocol: (§4) The plates were covered and incubated at 37° C. for 18-20 h.
(§5) Optical density was read at 600 nm (OD600) using Tecan M1000 Pro Spectrophotometer. […] Analysis was performed using Microsoft Excel.
The subject of assay [4] is Acinetobacter baumannii ATCC 19606 (GN_034). The assay is described as follows: MIC micro-broth dilution assay (Example 1 method). Particulars: for MIC: Acinetobacter baumannii.
Protocol: as §4, §5
Assay [5] deals with Pseudomonas aeruginosa ATCC 27853 (GN_042). Kind of assay: MIC micro-broth dilution assay (Example 1 method). Conditions: for MIC: Pseudomonas aeruginosa.
Protocol: as §4, §5
Assay [6] concerns Klebsiella pneumoniae ATCC 13883 (GN_003 / GN_004). The assay is described as follows: MIC micro-broth dilution assay (Example 1 method). Conditions: for MIC: Klebsiella pneumoniae.
Protocol: as §4, §5
[7] abbreviates: Acinetobacter baumannii ATCC 19606.
Where [8] appears, read: Pseudomonas aeruginosa ATCC 27853.
The mark [9] stands for this setting: Klebsiella pneumoniae ATCC 700603.

Take Gentamycin: the “MIC (Test results)” value in assay [1] is 1 μg/mL (2×) and 2 μg/mL and 0.5 μg/mL; in assay [2] it was 32 μg/mL (2×) and 64 μg/mL (2×).

As to Colistin, the “MIC of Colistin” value in assay [3] (Escherichia coli ATCC 25922) was 0.50 µg/mL and 0.5 µg/mL; in assay [3] (Example 3 Table 12, GN_001) it was 0.5 µg/mL; in assay [4] (setting [7]), 1.00 µg/mL and 1 µg/mL; in assay [4] (Example 3 Table 12, GN_034), 1 µg/mL; in assay [5] (setting [8]), 1.00 µg/mL and 1 µg/mL; in assay [6] (setting [9]), 0.50 µg/mL and 0.5 µg/mL. Also, the “Minimum Inhibitory Concentration (MIC)” value in assay [3] (Example 3 Table 11, GN_001, compound alone, replicates, listed as MCC_000094) was 0.25 μg/mL and 0.5 μg/mL and 2 μg/mL (2×); in assay [4] (Example 3 Table 11, GN_034, compound alone, replicates), 1 µg/mL. Also, in assay [1] (Example 11, Lipid A deficient GN_237), the “activity alone” value is given as “resistant”.

Regarding `CC1(C)S[C@@H]2[C@H](NC(=O)[C@H](C(=O)O)c3ccsc3)C(=O)N2[C@H]1C(=O)O` [Ticarcillin], the MIC in assay [3] (ATCC25922, read-out: MIC of Ticarcillin) was determined as 8 µg/mL; in assay [4] (ATCC19606, read-out: MIC of Ticarcillin) it was 4 µg/mL; in assay [5] (ATCC27853, read-out: MIC of Ticarcillin, Pseudomonas aeruginosa ATCC 27853), 32 µg/mL; in assay [6] (ATCC 13883 / ATCC 700603, read-out: MIC of Ticarcillin), 128 µg/mL. The “MIC of Ticarcillin” value in assay [5] (setting [8]) was 16 µg/mL.

Take `CCC[C@@H]1C[C@@H](C(=O)N[C@@H]([C@H]2O[C@H](SC)[C@H](O)[C@@H](O)[C@H]2O)[C@H](C)Cl)N(C)C1` [Clindamycin hydrochloride monohydrate]: in assay [1], the MIC worked out at 4 µg/mL; the “MIC (Test results)” value was 4 μg/mL and 8 μg/mL (2×). In addition, in assay [2], the MIC came out at 128 µg/mL; the “MIC (Test results)” value was 128 μg/mL (2×) and >128 μg/mL.

`CC(C)(O/N=C(\C(=O)N[C@@H]1C(=O)N2C(C(=O)[O-])=C(C[n+]3ccccc3)CS[C@H]12)c1csc(N)n1)C(=O)O` [Ceftazidime]: the “MIC of Ceftazidime” value in assay [3] (Escherichia coli ATCC 25922) is 0.062 µg/mL; in assay [4] (setting [7]), 4 µg/mL; in assay [5] (setting [8]), 4 µg/mL; in assay [6] (setting [9]), 128 µg/mL. Besides, the MIC in assay [3] (ATCC25922, read-out: MIC of Ceftazidime, Escherichia coli ATCC 25922) is 0.06 µg/mL; in assay [4] (ATCC19606, read-out: MIC of Ceftazidime, Acinetobacter baumannii ATCC 19606), 4 µg/mL; in assay [5] (ATCC27853, read-out: MIC of Ceftazidime), 4 µg/mL; in assay [6] (ATCC 13883 / ATCC 700603, read-out: MIC of Ceftazidime, Klebsiella pneumoniae ATCC 700603), 64 µg/mL.

On to `CO/N=C(\C(=O)N[C@@H]1C(=O)N2C(C(=O)O)=C(COC(N)=O)CS[C@H]12)c1ccco1` [Cefuroxime], for which the MIC in assay [3] (ATCC25922, read-out: MIC of Cefuroxime, Escherichia coli ATCC 25922) was 2 µg/mL; in assay [4] (ATCC19606, read-out: MIC of Cefuroxime, Acinetobacter baumannii ATCC 19606), 64 µg/mL; in assay [4] (ATCC19606, read-out: MIC of cefuroxime, Example 2 Table 8, GN_034), 64 µg/mL; in assay [4] (ATCC19606, read-out: Minimum Inhibitory Concentration (MIC), Example 2 Table 7, GN_034, compound alone, replicates), above 32 µg/mL; in assay [5] (ATCC27853, read-out: MIC of Cefuroxime) it was 256 µg/mL; in assay [6] (ATCC 13883 / ATCC 700603, read-out: MIC of Cefuroxime, Klebsiella pneumoniae ATCC 700603) it was 16 µg/mL. In assay [4] (Example 2 Table 7, GN_034, compound alone, replicates, listed as MCC_009386), the “Minimum Inhibitory Concentration (MIC)” value was >32 μg/mL and 64 μg/mL (2×).

For Colistin Sulfate, the “MIC (Test results)” value in assay [1] is >128 μg/mL (2×) and 128 μg/mL (2×); in assay [2], 1 µg/mL.

On to `C/C(=C\C(=O)OCCCCCCCCC(=O)O)C[C@@H]1OC[C@H](C[C@@H]2O[C@H]2[C@@H](C)[C@H](C)O)[C@@H](O)[C@H]1O` [Mupirocin], for which the MIC in assay [1] amounted to 32 µg/mL (≈ 63.9 µM); in assay [2], 128 µg/mL (≈ 256 µM). For the same molecule, the “MIC (Test results)” value in assay [1] turned out to be 16 µg/mL (≈ 32 µM); in assay [2], 128 µg/mL (≈ 256 µM).

Turning to Teicoplanin, the “MIC (Test results)” value in assay [1] is 0.25 μg/mL (2×) and 0.5 μg/mL; in assay [2] it was above 128 µg/mL.

As to `CC(=O)N[C@H](C(=O)N[C@H](CO)C(=O)N[C@H]1CCNC(=O)[C@H]([C@@H](C)O)NC(=O)[C@H](CCN)NC(=O)[C@H](CCN)NC(=O)[C@H](CC(C)C)NC(=O)[C@@H](Cc2ccccc2)NC(=O)[C@H](CCN)NC1=O)[C@@H](C)O` [Spero Potentiator SPR741] (HELM PEPTIDE1{[ac].T.[dS].[Dab].[Dab].[dF].L.[Dab].[Dab].T}$PEPTIDE1,PEPTIDE1,4:R3-10:R2$$$V2.0), the “MIC of Spero Potentiator SPR741” value was 64 µg/mL and 128 µg/mL in assay [3] (Escherichia coli ATCC 25922, alone); >128 µg/mL and >64 µg/mL in assay [4] (Acinetobacter baumannii ATCC 19606, alone); 64.00 µg/mL and 64 µg/mL in assay [5] (Pseudomonas aeruginosa ATCC 27853, alone); >128 µg/mL and >64 µg/mL in assay [6] (Klebsiella pneumoniae ATCC 700603 (so in the source), alone).
